From PubChem BioAssay (NCI)
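Growth conditions: 96-well plates. Treatment: test compound, 48 hours, 5 concentrations. Analysis: linear interpolation between bracketing concentrations; unreached endpoints set to highest concentration. The concentration for 50% growth inhibition is given as GI50. TGI marks complete inhibition of growth.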

Tests used:
Assay in all cases: NCI anticancer screen, dose series, 48 h
BT-549 breast = test system: BT-549 breast
CAKI-1 renal = test system: CAKI-1 renal
MALME-3M melanoma = test system: MALME-3M melanoma
MDA-N = test system: MDA-N
NCI/ADR-RES ovarian = test system: NCI/ADR-RES ovarian
SK-OV-3 ovarian = test system: SK-OV-3 ovarian
SNB-75 CNS = test system: SNB-75 CNS
UACC-62 melanoma = test system: UACC-62 melanoma
UO-31 renal = test system: UO-31 renal
HOP-92 NSCLC = test system: HOP-92 NSCLC

| SMILES | TGI (BT-549 breast) [µM] | TGI (CAKI-1 renal) [µM] | TGI (MALME-3M melanoma) [µM] | TGI (MDA-N) [µM] | TGI (NCI/ADR-RES ovarian) [µM] | TGI (SK-OV-3 ovarian) [µM] | TGI (SNB-75 CNS) [µM] | TGI (UACC-62 melanoma) [µM] | TGI (UO-31 renal) [µM] | TGI (HOP-92 NSCLC) [µM] | GI50 (CAKI-1 renal) [µM] | GI50 (HOP-92 NSCLC) [µM] | GI50 (SK-OV-3 ovarian) [µM] | GI50 (SNB-75 CNS) [µM] | GI50 (UACC-62 melanoma) [µM] | GI50 (UO-31 renal) [µM] |
| --- | --- | --- | --- | --- | --- | --- | --- | --- | --- | --- | --- | --- | --- | --- | --- | --- |
| Cn1c2ccccc2n2c3ncccc3c(=S)c(C#N)c12 | > 100 | > 100 | > 100 | > 100 | > 100 | > 100 | > 100 | > 100 | > 100 | – | – | – | – | – | – | – |
| O=C1c2ccccc2C(=O)N1c1nc(-c2ccc(Cl)cc2)cc(N2N=C(c3ccc(Br)cc3)CC2c2ccccc2)n1 (configuration not stated) | 16.8 | – | > 60.6 | 4.57 | 6.05 | > 46.1 | – | 11.5 | – | 82.3 | – | – | – | – | – | – |
| Cc1cc2cc3c(cc2c(-c2ccc(N)cc2)n1)OCO3 | > 100 | 75.4 | > 100 | > 100 | > 100 | > 100 | – | > 100 | > 100 | 75.4 | – | – | – | – | – | – |
| Cc1nc2ccc(Cl)cc2c2c1CCN2c1ccccc1 | 31.2 | 28.1 | 32.3 | 10.1 | 26 | – | > 100 | 23.6 | 23.8 | 24.1 | – | – | – | – | – | – |
| C=C(C)[C@@H]1CC[C@]2(C(=O)O)CC[C@]3(C)[C@H](CCC4[C@@]5(C)CC[C@H](C(=O)/C=C/c6ccc(O)c(O)c6)C(C)(C)[C@@H]5CC[C@]43C)[C@@H]12 (some centres not stated) | > 100 | 16.8 | – | 15.9 | > 100 | 19.4 | > 100 | 27.6 | 12.9 | – | – | – | – | – | – | – |
| C(/Cc1ccc2c(c1)OCO2)=N\NC1=NCCCN1 | > 100 | – | > 100 | > 100 | > 100 | > 100 | 81.1 | > 100 | > 100 | > 100 | – | – | – | – | – | – |
| Cc1ccc(-c2n[nH]c(=O)n2/N=C\c2ccccc2)cc1 | > 73.8 | > 100 | > 100 | > 93.9 | > 100 | – | 80.3 | > 100 | > 100 | 66.4 | – | – | – | – | – | – |
| CC1(C2CCC3(C)OC3C2)CO1 (configuration not stated) | – | > 100 | > 100 | – | – | > 100 | > 100 | > 100 | > 100 | > 100 | – | – | – | – | – | – |
| COc1c(C)c(C/C=C(\C)CC/C=C(\C)CCC=C(C)C)c(OC)c(OC)c1OC | > 100 | > 100 | – | > 100 | > 100 | > 100 | > 100 | > 100 | > 100 | > 100 | – | – | – | – | – | – |
| CO[C@]1(CN2CCN3CCCC[C@@H]3C2)/C=C/C[C@H](C)[C@@H](C)S(=O)(=O)NC(=O)c2ccc3c(c2)N(C[C@@H]2CC[C@H]21)C[C@@]1(CCCc2cc(Cl)ccc21)CO3 | – | 4.24 | – | – | – | 7.5 | 2.04 | 1.22 | 2.93 | 3.46 | 1.79 | 1.67 | 2.67 | 0.371 | 0.148 | 1.43 |
| C/C(Nc1ccc(Cl)cc1Cl)=C1/CCOC1=O | 63.3 | – | > 100 | – | > 100 | – | 66.1 | > 100 | > 100 | 51.8 | – | – | – | – | – | – |
| C#CCC1(C(=O)OCC)C(=O)c2ccccc2N(C)C1=O (configuration not stated) | – | > 100 | > 100 | – | – | > 100 | > 100 | > 100 | > 100 | > 100 | – | – | – | – | – | – |
